Assay results taken from ChEMBL document CHEMBL1150565, “Cheilanthane sesterterpenes, protein kinase inhibitors, from a marine sponge of the genus Ircinia” (J Nat Prod, 2001).

How the values were obtained:
[1] = target: MAP kinase-activated protein kinase 2 (Homo sapiens, UniProt P49137); assay: Inhibition of MAPKAPK2 assessed as [33P] incorporation by scintillation proximity assay
[2] = target: Ribosomal protein S6 kinase alpha-5 (Homo sapiens, UniProt O75582); assay: Inhibition of MSK1 assessed as [33P] incorporation by scintillation proximity assay
Ribosomal protein S6 kinase alpha-5, sequence (O75582 whole entry): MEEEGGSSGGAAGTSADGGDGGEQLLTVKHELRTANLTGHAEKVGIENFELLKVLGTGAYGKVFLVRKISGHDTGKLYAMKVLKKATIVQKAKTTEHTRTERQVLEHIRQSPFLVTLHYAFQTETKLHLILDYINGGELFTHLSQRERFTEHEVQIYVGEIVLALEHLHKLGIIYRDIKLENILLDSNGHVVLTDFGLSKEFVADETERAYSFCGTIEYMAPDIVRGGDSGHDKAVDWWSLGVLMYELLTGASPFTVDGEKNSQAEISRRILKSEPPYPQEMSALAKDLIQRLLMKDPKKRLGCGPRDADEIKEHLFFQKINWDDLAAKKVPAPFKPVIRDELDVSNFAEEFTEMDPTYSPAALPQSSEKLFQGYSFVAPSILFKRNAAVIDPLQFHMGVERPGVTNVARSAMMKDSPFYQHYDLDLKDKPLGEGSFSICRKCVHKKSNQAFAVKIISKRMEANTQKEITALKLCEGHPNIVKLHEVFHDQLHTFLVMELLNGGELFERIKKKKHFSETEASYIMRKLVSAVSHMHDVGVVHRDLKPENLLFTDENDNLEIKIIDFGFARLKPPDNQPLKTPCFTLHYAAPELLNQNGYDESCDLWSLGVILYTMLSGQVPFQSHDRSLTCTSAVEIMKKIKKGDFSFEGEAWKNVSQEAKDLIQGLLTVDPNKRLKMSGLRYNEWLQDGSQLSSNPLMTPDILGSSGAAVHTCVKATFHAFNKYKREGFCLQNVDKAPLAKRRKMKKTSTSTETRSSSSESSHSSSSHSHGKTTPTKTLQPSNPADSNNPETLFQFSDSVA

MAP kinase-activated protein kinase 2, sequence (P49137 whole entry): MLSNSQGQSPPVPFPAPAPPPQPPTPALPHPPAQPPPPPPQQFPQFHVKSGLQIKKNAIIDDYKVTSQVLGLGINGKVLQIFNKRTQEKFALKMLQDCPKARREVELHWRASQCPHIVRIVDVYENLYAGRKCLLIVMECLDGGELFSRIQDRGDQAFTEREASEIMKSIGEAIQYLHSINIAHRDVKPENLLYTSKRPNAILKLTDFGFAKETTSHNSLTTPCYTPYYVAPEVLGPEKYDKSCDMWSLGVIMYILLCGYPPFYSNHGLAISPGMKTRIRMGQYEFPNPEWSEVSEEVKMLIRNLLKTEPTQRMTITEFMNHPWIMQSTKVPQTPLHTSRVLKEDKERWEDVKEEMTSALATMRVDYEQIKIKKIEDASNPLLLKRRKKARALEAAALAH

IC50 [1] [µM] | IC50 [2] [µM] | SMILES
90 | 4 | C=C1CC[C@H]2[C@@](C)(CC[C@H]3C(C)(C)CCC[C@]23C)[C@@H]1CC1OC(=O)C=C1CO (stereo partly drawn)
90 | 4 | CC1(C)CCC[C@]2(C)[C@H]3CC[C@]4(C)O[C@@H](C5=CC(=O)OC5O)C[C@H]4[C@]3(C)CC[C@@H]12 (mixture of isomers)
90 | 4 | C=C1CC[C@H]2[C@@](C)(CC[C@H]3C(C)(C)CCC[C@]23C)[C@@H]1CC(O)C1=CC(=O)OC1O (mixture of isomers)
90 | 4 | C=C1CC[C@H]2[C@@](C)(CC[C@H]3C(C)(C)CCC[C@]23C)[C@@H]1/C=C/C1=CC(=O)OC1O (mixture of isomers)
